Measurements from US6852485B1, “Method for identifying a compound for the treatment of microorganism infections by inhibiting energy storage and utilization in pathogens” (California State University Fullerton Foundation, priority 2002, dated 2005).

Target: T1, Rhodobacter sphaeroides (Rb.s.) ADPG Ppase (Cereibacter sphaeroides, UniProt Q9RNH7)
T1 construct: made in house
Assay: ADPGlc synthesis assay (14-C Glc-1-P converted to ADPGlucose) with purified recombinant Rb.s. ADPG Ppase, with and without activator F6P
Type: biochemical
Details: for inhibition of Rb.s. ADPG Ppase: 500 μM analog, 0.25 mM ATP, 0.5 mM Glc-1-P, pH 7
From the text: One particular in vitro method for assessing the activity of an inhibitor to purified ADPGlc PPase is the following: • Assaying for ADPGlc synthesis activity involves measuring the amount of 14-C labeled Glc-1-P converted to ADPGlucose (Preiss, J., Shen, L., Greenberg, E., and Gentner, N. (1966) Biochemistry 5, 1833-1845). Briefly, unreacted Glc-1-P is separated from product by the following steps: 1)digestion with alkaline phosphatase (thus removing the negatively charged phosphate); 2) spotting an aliquot of the reaction mixture on to positively charged DE-81 filters (Whatman); and 3) washing the filters with water (thus removing the now neutral C-14 glucose).
To assess the effect of a putative inhibitor, enzyme assays are performed at a subsaturating concentration of substrate (depending on the enzyme, ATP=0.2-1 mM, Glc-1-P=0.5 mM) under standard conditions in the absence and presence of the major activator for each enzyme (1-5 mM depending on enzyme). In this way, the effect of the inhibitors can be evaluated under the range of the expected in vivo conditions. Initial screening of a putative inhibitor typically includes testing at two concentrations (˜25 μM and 1 mM)±major activator with appropriate controls and blanks for a total of 9 assays/inhibitor/enzyme (2 control assays—appropriate enzyme concentrations in the absence of inhibitor; 4 experimental assays; 1 blank in the absence of inhibitors; 2 blanks in the presence of inhibitor (no activator required).
The APDGIc Ppase from Rhodobacter sphaeroides has been used as a model enzyme for initial testing of inhibitors as it has been cloned, sequenced, and expressed in the inventor's laboratory (Meyer et al (1999) Arch. Biochem. Biophys. 372, 179-188; Igarashi, R. Y. and Meyer, C. R. (2000) Arch. Biochem. Biophys. 376, 47-58) and the purified recombinant enzyme is readily available. Further, this particular enzyme has the most complex regulation (having partial overlap with nearly every type of ADPG Ppase) and has sufficient homology (ranging from ˜40-70% similarity) to the enzyme primary sequence from the mentioned pathogenic bacteria.
PREMIX: A: 100 mM HEPES (pH 7), 0.5 mg/mL BSA, 0.5 mM Glc-1-P, 0.25 mM ATP subsaturating (near S0.5 value), 5 mM MgCl2, (0.2 U Pyrophosphatase))
PREMIX B: A+1 mM F6P (170 μL premix will allow 20 μL for analog vol., 10 μL of E)
II. ANALOG CONC.=5, 50, 500 μM (STOCK CONC.=5 mM) in 50 mM HEPES, pH 7, note that 20 μL of 5 mM in 200 μL assay will yield 500 μM final concentration to obtain 5 mM aliquots: • ANALOG I: add 625 μL of HEPES buffer, mix thoroughly • ANALOG II: add 500 μL of HEPES buffer, mix thoroughly
1:10 DILUTION ALIQUOTS OF 5 mM STOCKS are prepared in order to generate stock solutions that will give 50 and 5 μM with the addition of 20 μL. 100 μL aliquots are stored at −20 C
RBS ADPG PPASE WT ENZYME CONC.=17 mg/mL (use 1:8000 dilution in Dilution Buffer)
THE FOLLOWING ASSAY SET OF 11 ARE UTILIZED FOR EACH ANALOG • 1-BLANK (Premix A) • 2-BLANK+50 μM ANALOG (A) • 3-BLANK+500 μM ANALOG (A) • 4-E CON (A) • 5-E CON+F6P (B) • 6-E+5 μM (A) • 7-E+5 μM((B) • 8-E+50 μM(A) • 9-E+50 μM(B) • 10-E+500 μM (A) • 11-E+500 μM (B)
Purified Rb.s ADPG Ppase was assayed under standard conditions (0.25 mM ATP [˜S0.5 value], 0.5 mM Glc-1-P, 5 mM Mg, 100 mM HEPES, pH7) in the presence and absence of the activator F6P (1 mM) at 3 concentrations of the analogs: 5, 50, and 500 μM. Analog stock solutions were made in 50 mM HEPES, pH 7). These concentrations should be regarded as estimates as there could have been some breakdown of the compounds during 2 years of storage at −20° C. The analogs had no effect on the background cpm of the assays.

[1] = E + 5 uM analog, Premix A (no F6P)
[2] = E + 5 uM analog, Premix B (+1 mM F6P)
[3] = E + 50 uM analog, Premix A (no F6P)
[4] = E + 50 uM analog, Premix B (+1 mM F6P)
[5] = E + 500 uM analog, Premix A (no F6P)
[6] = E + 500 uM analog, Premix B (+1 mM F6P)

T1 sequence (Q9RNH7 whole entry): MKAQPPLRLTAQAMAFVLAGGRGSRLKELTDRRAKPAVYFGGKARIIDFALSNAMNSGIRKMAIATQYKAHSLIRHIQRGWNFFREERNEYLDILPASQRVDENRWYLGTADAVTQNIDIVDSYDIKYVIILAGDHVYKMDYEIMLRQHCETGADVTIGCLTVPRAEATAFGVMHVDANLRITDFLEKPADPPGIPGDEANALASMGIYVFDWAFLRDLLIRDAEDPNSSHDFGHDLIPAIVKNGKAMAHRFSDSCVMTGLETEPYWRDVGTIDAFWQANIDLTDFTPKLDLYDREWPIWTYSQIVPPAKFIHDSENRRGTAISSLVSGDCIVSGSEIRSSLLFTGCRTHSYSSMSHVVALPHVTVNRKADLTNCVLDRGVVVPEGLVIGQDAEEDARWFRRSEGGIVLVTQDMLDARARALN

BP(=O)(OC[C@H]1O[C@@H](n2cnc3c(N)ncnc32)[C@H](O)[C@@H]1O)OP(=O)(O)O[C@H]1O[C@H](CO)[C@@H](O)[C@H](O)[C@H]1O (single isomer, unassigned) [Analog I, adenosine-α-P-boranodiphosphoglucose]
inhibition of Rb.s. ADPG Ppase (absence of the activator F6P): about 75%
inhibition of Rb.s. ADPG Ppase (presence of F6P (1 mM)): ~50%
Units/mg (enzyme activity) [1]: 4.02 Units/mg
Units/mg (enzyme activity) [2]: 91.75 Units/mg
Units/mg (enzyme activity) [3]: 3.55 Units/mg
Units/mg (enzyme activity) [4]: 87.40 Units/mg
Units/mg (enzyme activity) [5]: 1.33 Units/mg
Units/mg (enzyme activity) [6]: 53.37 Units/mg

BP(=O)(OC[C@H]1O[C@@H](n2cnc3c(N)ncnc32)[C@H](O)[C@@H]1O)OP(=O)(O)O[C@H]1O[C@H](CO)[C@@H](O)[C@H](O)[C@H]1O (single isomer, unassigned) [Analog II, adenosine-α-P-boranodiphosphoglucose]
inhibition of Rb.s. ADPG Ppase (absence of the activator F6P): about 70%
inhibition of Rb.s. ADPG Ppase (presence of F6P (1 mM)): about 70%
Units/mg (enzyme activity) [1]: 5.28 Units/mg
Units/mg (enzyme activity) [2]: 93.86 Units/mg
Units/mg (enzyme activity) [3]: 4.38 Units/mg
Units/mg (enzyme activity) [4]: 76.73 Units/mg
Units/mg (enzyme activity) [5]: 1.77 Units/mg
Units/mg (enzyme activity) [6]: 33.51 Units/mg
